What was measured:
Test in all cases: relative viability (nuclei count vs DMSO), 5 days (fraction); higher = more cells survive
CUDC-101 + OSI-027 = compound: C#Cc1cccc(Nc2ncnc3cc(OC)c(OCCCCCCC(=O)NO)cc23)c1 [CUDC-101] + COc1cccc2cc(-c3nc([C@H]4CC[C@H](C(=O)O)CC4)n4ncnc(N)c34)[nH]c12 [OSI-027] (partner 0.5 µM)
Outline: (§1)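 Lung cancer cell lines were pin-tool dosed in 1536-well plates on the day after seeding, with either a lone drug or a fixed anchor-drug dose plus five library-drug doses (not always all listed) in √10 steps. Nuclei were counted on 4× images after 5 days. Relative viability is the ratio of treated-well to vehicle-well nuclei counts, with each value a median of duplicate plates.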

[1] = compound: C1=CC=C2C(=C1)N=C(S2)C(C#N)C3=NC(=NC=C3)NCCC4=CN=CC=C4 + CS(=O)(=O)N1CCN(Cc2cc3nc(-c4cccc5[nH]ncc45)nc(N4CCOCC4)c3s2)CC1 [Pictilisib] (partner 1 µM)
Outline: as §1

[2] = compound: C1=CC=C2C(=C1)N=C(S2)C(C#N)C3=NC(=NC=C3)NCCC4=CN=CC=C4 + C[C@@H](Oc1cc(-c2cnn(C3CCNCC3)c2)cnc1N)c1c(Cl)ccc(F)c1Cl [Crizotinib] (partner 1 µM)
Outline: as §1

Vandetanib + Bortezomib = compound: COc1cc2/c(=N/c3ccc(Br)cc3F)nc[nH]c2cc1OCC1CCN(C)CC1 [Vandetanib] + CC(C)C[C@H](NC(=O)[C@H](Cc1ccccc1)NC(=O)c1cnccn1)B(O)O [Bortezomib] (partner 0.002 µM)
Outline: as §1

| Cell Line | relative viability (CUDC-101 + OSI-027; first compound 0.01 µM) | relative viability (CUDC-101 + OSI-027; first compound 0.03162 µM) | relative viability (CUDC-101 + OSI-027; first compound 0.1 µM) | relative viability (CUDC-101 + OSI-027; first compound 0.3162 µM) | relative viability (CUDC-101 + OSI-027; first compound 1 µM) | relative viability ([1]; first compound 0.005 µM) | relative viability ([1]; first compound 0.01581 µM) | relative viability ([1]; first compound 0.05 µM) | relative viability ([1]; first compound 0.1581 µM) | relative viability ([1]; first compound 0.5 µM) | relative viability ([2]; first compound 0.005 µM) | relative viability ([2]; first compound 0.01581 µM) | relative viability ([2]; first compound 0.05 µM) | relative viability ([2]; first compound 0.1581 µM) | relative viability ([2]; first compound 0.5 µM) | relative viability (Vandetanib + Bortezomib; first compound 0.02 µM) | relative viability (Vandetanib + Bortezomib; first compound 0.2 µM) | relative viability (Vandetanib + Bortezomib; first compound 0.6325 µM) | relative viability (Vandetanib + Bortezomib; first compound 2 µM) | relative viability (Vandetanib + Bortezomib; first compound 0.06325 µM) |
| --- | --- | --- | --- | --- | --- | --- | --- | --- | --- | --- | --- | --- | --- | --- | --- | --- | --- | --- | --- | --- |
| NCI-H2347 | 0.313 | 0.38 | 0.402 | 0.469 | 0.25 | 0.474 | 0.695 | 0.659 | 0.756 | 0.609 | 0.724 | 0.669 | 0.533 | 0.699 | 0.723 | 0.878 | 0.896 | 0.956 | 0.969 | – |
| NCI-H2405 | 0.643 | 0.613 | 0.721 | 0.734 | 0.541 | 0.456 | 0.378 | 0.397 | 0.506 | 0.422 | 0.819 | 0.915 | 0.872 | – | 0.809 | 0.96 | 0.985 | 0.948 | 1 | 0.9 |
| NCI-H3122 | 0.909 | 1.07 | 1.03 | 1.14 | 0.927 | 0.62 | 0.655 | 0.603 | 0.613 | 0.64 | 0.245 | 0.305 | 0.279 | 0.296 | 0.296 | 0.978 | 1.05 | 0.953 | 1 | 1.03 |
| PC-3 [JPC-3] | 0.758 | 0.786 | 0.514 | 0.547 | 0.407 | 0.605 | 0.643 | 0.722 | 0.731 | 0.672 | 0.712 | 1.07 | 1.01 | 0.948 | 0.846 | 0.828 | 0.646 | 0.734 | 0.431 | 0.738 |
| PC-14 | 1.02 | 0.813 | 0.378 | 0.571 | 0.0565 | – | 0.785 | 0.778 | 0.498 | 0.533 | 0.856 | 0.961 | 0.929 | 0.972 | 0.744 | 1.03 | 1.05 | 0.295 | 0.258 | 0.939 |
| RERF-LC-KJ | 0.517 | 0.612 | 0.674 | 0.585 | 0.401 | 0.739 | 0.64 | 0.48 | 0.529 | 0.403 | 0.942 | 0.856 | 0.819 | 0.891 | 0.749 | 1.05 | 1.05 | 0.951 | 0.958 | 0.961 |
| SK-LU-1 | 0.356 | 0.332 | 0.431 | 0.402 | 0.325 | – | 0.643 | 0.6 | 0.651 | 0.552 | – | 0.853 | 0.95 | 1.16 | 0.907 | 1.23 | 1.21 | 1.39 | 0.467 | 1.01 |
| SW 1573 | 0.578 | 0.623 | 0.726 | 0.766 | 0.279 | 0.373 | 0.542 | 0.505 | 0.497 | 0.497 | 0.753 | 0.809 | 0.722 | 0.793 | 0.785 | 1 | 1.16 | 1.01 | 0.879 | 0.817 |

— the supplement of paper PMC10307832
